# Measurements published in patent publication US9963442B2, “Pyridones as herbicides” (E I DU PONT DE NEMOURS AND COMPANY, priority 2014, dated 2018).
# Experiments:
# Format in all cases: in vivo
# [1] = tested on: Italian ryegrass (Lolium multiflorum); test: Test A preemergence, directed soil spray; conditions: approx. 10 days
# Outline: (§1)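 Compounds in non-phytotoxic solvent with surfactant applied as directed soil spray preemergence or postemergence to plants 2–10 cm, one- to two-leaf stage, in loam/sand. Injury rated visually versus untreated controls after about 10 days in greenhouse, 0 (no effect) to 100 (complete control).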
# [2] = tested on: barnyardgrass (Echinochloa crus-galli); test: Test A preemergence, directed soil spray; conditions: approx. 10 days
# Outline: as §1
# [3] = tested on: giant foxtail (Setaria faberii); test: Test A preemergence, directed soil spray; conditions: approx. 10 days
# Outline: as §1
# kochia (Kochia scoparia) [4] = test: Test A preemergence, directed soil spray; conditions: approx. 10 days
# Outline: as §1
# [5] = tested on: pigweed (Amaranthus retroflexus); test: Test A preemergence, directed soil spray; conditions: approx. 10 days
# Outline: as §1
# [6] = tested on: ragweed (common ragweed, Ambrosia elatior); test: Test A preemergence, directed soil spray; conditions: approx. 10 days
# Outline: as §1
# [7] = tested on: Italian ryegrass (Lolium multiflorum); test: Test A postemergence application; conditions: approx. 10 days
# Outline: as §1
# [8] = tested on: barnyardgrass (Echinochloa crus-galli); test: Test A postemergence application; conditions: approx. 10 days
# Outline: as §1
# [9] = tested on: blackgrass (Alopecurus myosuroides); test: Test A postemergence application; conditions: approx. 10 days
# Outline: as §1
# corn (Zea mays) [10] = test: Test A postemergence application; conditions: approx. 10 days
# Outline: as §1
# [11] = tested on: galium (catchweed bedstraw, Galium aparine); test: Test A postemergence application; conditions: approx. 10 days
# Outline: as §1
# [12] = tested on: giant foxtail (Setaria faberii); test: Test A postemergence application; conditions: approx. 10 days
# Outline: as §1
# kochia (Kochia scoparia) [13] = test: Test A postemergence application; conditions: approx. 10 days
# Outline: as §1
# [14] = tested on: pigweed (Amaranthus retroflexus); test: Test A postemergence application; conditions: approx. 10 days
# Outline: as §1
# [15] = tested on: ragweed (common ragweed, Ambrosia elatior); test: Test A postemergence application; conditions: approx. 10 days
# Outline: as §1
# [16] = tested on: wheat (Triticum aestivum); test: Test A postemergence application; conditions: approx. 10 days
# Outline: as §1
# [17] = tested on: johnsongrass (Sorghum halepense); test: Test C preemergence; conditions: scale 0 to 100, 0 is no effect, 100 is complete control
# Outline: (§2)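 Each species was evaluated by eye against untreated controls at 13 to 15 days post-treatment and rated 0–100, with 100 indicating complete control. Applications were made preemergence to seeded soil or postemergence to seedlings at the 1- to 4-leaf stage, using a surfactant-containing solvent formulation.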
# soybean (Glycine max) = test: Test C preemergence; conditions: scale 0 to 100, 0 is no effect, 100 is complete control
# Outline: as §2
# [18] = tested on: Italian ryegrass (Lolium multiflorum); test: Test C postemergence; conditions: scale 0 to 100, 0 is no effect, 100 is complete control
# Description: (§3) Seeds of plant species selected from blackgrass (Alopecurus myosuroides), Italian ryegrass (Lolium multiflorum), winter wheat (Triticum aestivum), galium (catchweed bedstraw, Galium aparine), corn (Zea mays), large (Lg) crabgrass (Digitaria sanguinalis), giant foxtail (Setaria faberii), johnsongrass (Sorghum halepense), lambsquarters (Chenopodium album), morningglory (Ipomoea coccinea), yellow nutsedge (Cyperus esculentus), pigweed (Amaranthus retroflexus), ragweed (common ragweed, Ambrosia elatior), soybean (Glycine max), barnyardgrass (Echinochloa crus-galli), oilseed rape (Brassica napus), waterhemp (common waterhemp, Amaranthus rudis), and velvetleaf (Abutilon theophrasti) were planted into a blend of loam soil and sand and treated preemergence with test chemicals formulated in a non-phytotoxic solvent mixture which included a surfactant. At the same time, plants selected from these crop and weed species and also chickweed (common chickweed, Stellaria media), kochia (Kochia scoparia), and wild oat (Avena fatua), were planted in pots containing Sunshine Redi-Earth® planting medium comprising spaghnum peat moss, vermiculite, starter nutrients and dolomitic limestone and treated with postemergence applications of test chemicals formulated in the same manner. Plants ranged in height from 2 to 18 cm (1- to 4-leaf stage) for postemergence treatments. Treated plants and controls were maintained in a greenhouse for 13 to 15 days, after which time all species were compared to controls and visually evaluated. Plant response ratings, summarized in Table C, are based on a scale of 0 to 100 where 0 is no effect and 100 is complete control. A dash (-) response means no test result.
# corn (Zea mays) [19] = test: Test C postemergence; conditions: scale 0 to 100, 0 is no effect, 100 is complete control
# Description: as §3
# [20] = tested on: galium (catchweed bedstraw, Galium aparine); test: Test C postemergence; conditions: scale 0 to 100, 0 is no effect, 100 is complete control
# Description: as §3
# [21] = tested on: large (Lg) crabgrass (Digitaria sanguinalis); test: Test C postemergence; conditions: scale 0 to 100, 0 is no effect, 100 is complete control
# Description: as §3
# [22] = tested on: velvetleaf (Abutilon theophrasti); test: Test C postemergence; conditions: scale 0 to 100, 0 is no effect, 100 is complete control
# Description: as §3
# [23] = tested on: waterhemp (common waterhemp, Amaranthus rudis); test: Test C postemergence; conditions: scale 0 to 100, 0 is no effect, 100 is complete control
# Description: as §3
structure (smiles),measurement,setting,value
O=c1cccc(Oc2ncc(Cl)cn2)n1-c1ccc(C(F)(F)F)cn1 [Compound 7],"Plant response rating (0 to 100 scale, 0 no effect, 100 complete control), Ryegrass, Italian",[1]; 31 g ai/ha,10
same,"Plant response rating (0 to 100 scale, 0 no effect, 100 complete control), Ryegrass, Italian",[1]; 125 g ai/ha,60
same,"Plant response rating (0 to 100 scale, 0 no effect, 100 complete control), Barnyardgrass",[2]; 31 g ai/ha,20
same,"Plant response rating (0 to 100 scale, 0 no effect, 100 complete control), Barnyardgrass",[2]; 125 g ai/ha,70
same,"Plant response rating (0 to 100 scale, 0 no effect, 100 complete control), Foxtail, Giant",[3]; 31 g ai/ha,60
same,"Plant response rating (0 to 100 scale, 0 no effect, 100 complete control), Foxtail, Giant",[3]; 125 g ai/ha,100
same,"Plant response rating (0 to 100 scale, 0 no effect, 100 complete control), Kochia",kochia (Kochia scoparia) [4]; 31 g ai/ha,30
same,"Plant response rating (0 to 100 scale, 0 no effect, 100 complete control), Kochia",kochia (Kochia scoparia) [4]; 125 g ai/ha,70
same,"Plant response rating (0 to 100 scale, 0 no effect, 100 complete control), Pigweed",[5]; 31 g ai/ha,100
same,"Plant response rating (0 to 100 scale, 0 no effect, 100 complete control), Pigweed",[5]; 125 g ai/ha,100
same,"Plant response rating (0 to 100 scale, 0 no effect, 100 complete control), Ragweed",[6]; 31 g ai/ha,10
same,"Plant response rating (0 to 100 scale, 0 no effect, 100 complete control), Ragweed",[6]; 125 g ai/ha,70
same,"Plant response rating (0 to 100 scale, 0 no effect, 100 complete control), Ryegrass, Italian",[7]; 31 g ai/ha,0
same,"Plant response rating (0 to 100 scale, 0 no effect, 100 complete control), Ryegrass, Italian",[7]; 125 g ai/ha,20
same,"Plant response rating (0 to 100 scale, 0 no effect, 100 complete control), Barnyardgrass",[8]; 31 g ai/ha,20
same,"Plant response rating (0 to 100 scale, 0 no effect, 100 complete control), Barnyardgrass",[8]; 125 g ai/ha,50
same,"Plant response rating (0 to 100 scale, 0 no effect, 100 complete control), Blackgrass",[9]; 31 g ai/ha,10
same,"Plant response rating (0 to 100 scale, 0 no effect, 100 complete control), Blackgrass",[9]; 125 g ai/ha,30
same,"Plant response rating (0 to 100 scale, 0 no effect, 100 complete control), Corn",corn (Zea mays) [10]; 31 g ai/ha,10
same,"Plant response rating (0 to 100 scale, 0 no effect, 100 complete control), Corn",corn (Zea mays) [10]; 125 g ai/ha,20
same,"Plant response rating (0 to 100 scale, 0 no effect, 100 complete control), Galium",[11]; 31 g ai/ha,50
same,"Plant response rating (0 to 100 scale, 0 no effect, 100 complete control), Galium",[11]; 125 g ai/ha,90
same,"Plant response rating (0 to 100 scale, 0 no effect, 100 complete control), Foxtail, Giant",[12]; 31 g ai/ha,20
same,"Plant response rating (0 to 100 scale, 0 no effect, 100 complete control), Foxtail, Giant",[12]; 125 g ai/ha,50
same,"Plant response rating (0 to 100 scale, 0 no effect, 100 complete control), Kochia",kochia (Kochia scoparia) [13]; 31 g ai/ha,80
same,"Plant response rating (0 to 100 scale, 0 no effect, 100 complete control), Kochia",kochia (Kochia scoparia) [13]; 125 g ai/ha,90
same,"Plant response rating (0 to 100 scale, 0 no effect, 100 complete control), Pigweed",[14]; 31 g ai/ha,70
same,"Plant response rating (0 to 100 scale, 0 no effect, 100 complete control), Pigweed",[14]; 125 g ai/ha,90
same,"Plant response rating (0 to 100 scale, 0 no effect, 100 complete control), Ragweed",[15]; 31 g ai/ha,30
same,"Plant response rating (0 to 100 scale, 0 no effect, 100 complete control), Ragweed",[15]; 125 g ai/ha,60
same,"Plant response rating (0 to 100 scale, 0 no effect, 100 complete control), Wheat",[16]; 31 g ai/ha,0
same,"Plant response rating (0 to 100 scale, 0 no effect, 100 complete control), Wheat",[16]; 125 g ai/ha,20
same,"Plant response rating, Johnsongrass",[17]; 16 g ai/ha,0
same,"Plant response rating, Johnsongrass",[17]; 31 g ai/ha,0
same,"Plant response rating, Johnsongrass",[17]; 62 g ai/ha,10
same,"Plant response rating, Johnsongrass",[17]; 125 g ai/ha,20
same,"Plant response rating, Soybean",soybean (Glycine max); 16 g ai/ha,10
same,"Plant response rating, Soybean",soybean (Glycine max); 62 g ai/ha,15
same,"Plant response rating, Soybean",soybean (Glycine max); 125 g ai/ha,50
same,"Plant response rating, Ryegrass, Italian",[18]; 16 g ai/ha,0
same,"Plant response rating, Ryegrass, Italian",[18]; 31 g ai/ha,5
same,"Plant response rating, Ryegrass, Italian",[18]; 62 g ai/ha,5
same,"Plant response rating, Ryegrass, Italian",[18]; 125 g ai/ha,10
same,"Plant response rating, Corn",corn (Zea mays) [19]; 16 g ai/ha,10
same,"Plant response rating, Corn",corn (Zea mays) [19]; 31 g ai/ha,10
same,"Plant response rating, Corn",corn (Zea mays) [19]; 62 g ai/ha,20
same,"Plant response rating, Corn",corn (Zea mays) [19]; 125 g ai/ha,15
same,"Plant response rating, Galium",[20]; 16 g ai/ha,45
same,"Plant response rating, Galium",[20]; 31 g ai/ha,50
same,"Plant response rating, Galium",[20]; 62 g ai/ha,60
same,"Plant response rating, Galium",[20]; 125 g ai/ha,75
same,"Plant response rating, Crabgrass, Large",[21]; 16 g ai/ha,10
same,"Plant response rating, Crabgrass, Large",[21]; 31 g ai/ha,10
same,"Plant response rating, Crabgrass, Large",[21]; 62 g ai/ha,15
same,"Plant response rating, Crabgrass, Large",[21]; 125 g ai/ha,15
same,"Plant response rating, Velvetleaf",[22]; 16 g ai/ha,25
same,"Plant response rating, Velvetleaf",[22]; 31 g ai/ha,35
same,"Plant response rating, Velvetleaf",[22]; 62 g ai/ha,40
same,"Plant response rating, Velvetleaf",[22]; 125 g ai/ha,65
same,"Plant response rating, Waterhemp",[23]; 16 g ai/ha,60
same,"Plant response rating, Waterhemp",[23]; 31 g ai/ha,70
same,"Plant response rating, Waterhemp",[23]; 62 g ai/ha,85
same,"Plant response rating, Waterhemp",[23]; 125 g ai/ha,85
